According to patent publication US20240092761A1, “QUINAZOLINE COMPOUNDS AND METHODS OF USE” (IAMBIC THERAPEUTICS, INC., priority 2022, published 2024):

Columns and labels:
CDK4/Cyclin D1 = CDK4/Cyclin D1 (Homo sapiens (Human), UniProt P11802); experiment: CDK4/Cyclin D1 CHEF Assay (AQT0258 peptide); type: biochemical; conditions: 200 uM ATP, read-out: CDK4/ CyclinD1 AQT IC50
Text: CDK4/Cyclin D1 CHEF Assay
The purpose of CDK4/Cyclin Dl assay is to evaluate the inhibition (% inhibition and IC50 values) of small molecule inhibitors by using a Chelation-Enhance Fluorescence (CHEF) assay. In a CHEF assay, phosphorylation of a peptide substrate results in proportional increase in fluorescence. CHEF kinase assay use peptide substrates containing a synthetic alpha-amino acid with a side chain bearing an 8-hydroxyquinoline derivative (sulfonamido-oxide, Sox). Upon phosphorylation of a nearby serine, threonine or tyrosine and in the presence of Mg(II), the spectral properties of the Sox residue are altered, emitting 485 nm wavelength light when excited with a 360 nm wavelength light source. CDK4/Cyclin D1 catalyzes the phosphoryl transfer to the SOX-labeled substrate peptide AQT0258 from Assayquant Technologies. Typical reaction solutions contained 2% DMSO (+/−inhibitor), 10 mM MgCl2, 1 mM DTT, 200 uM ATP (ATP Km=195.2 uM), 0.012% Brig-35, 10 uM AQT0258 peptide, 0.02% BSA, 1% Glycerol, 0.55 mM EGTA, 2.5 nM CDK4/Cyclin D1 in 54 mM HEPES buffer at pH 7.5. The reaction was initiated with the addition of substrate solution, following a 30-minute pre-incubation of enzyme and inhibitor at 22° C. in the reaction mix. Reactions were allowed to proceed for 3 hrs at 22° C., followed by fluorescence read of the reaction. The IC50 determinations were made from a plot of the fractional velocity as a function of inhibitor concentration fit to the 4 parameters IC50 equation.

OVCAR-3 cells = experiment: Cell Growth Inhibition, OVCAR-3 (CellTiterGlo, 6 days); type: cell-based; conditions: OVCAR-3, 6-day treatment, CellTiterGlo 2.0
Text: (§1) MCF-7 and OVCAR-3 cells were used to evaluate the anti-proliferation activity of the CDK inhibitors. MCF-7 (ATCC, HTB-22) cells are epithelial cells from a patient with ER+ metastatic adenocarcinoma. OVCAR-3 (ATCC, HTB-161) cells were derived from malignant ascites of a patient with ovarian cancer and are known to have CCNE1 amplification. Both cell lines were maintained in RPMI media supplemented with 10% fetal bovine serum. For cell growth inhibition assay, CDK inhibitors in DMSO solution were dispensed with either Echo 655 (Beckman Coulter) or Tecan D300e (HP) into 384-well plates (Corning #3765) and the 384-well plates were UV-sterilized prior to the assay. The inhibitors were typically tested in the 10-10,000 nM concentration range with half-log serial dilutions. MCF-7 or OVCAR-3 (500 cells/30 μL/well) were added to each well using Multidrop Combi (ThermoFisher) using standard cassettes. The assay plates with cells were cultured at 37° C., 5% CO2 for 6 days. At the end of the 6-day treatment, 30 μL of CellTiterGlo 2.0 (Promega) was added to each well and the luminescent signal was read using CLARIOstar plus (BMG). The percentage of cell growth inhibition (% CGI) was calculated using the following formula % CGI=100−100×luminescencesample/luminescencecontrol. The half maximal inhibitory concentration (IC50) was determined by nonlinear curve fitting (four parameters, variable slope).

MCF-7 cells = experiment: Cell Growth Inhibition, MCF-7 (CellTiterGlo, 6 days); type: cell-based; conditions: MCF-7, 6-day treatment, CellTiterGlo 2.0
Text: as §1

CDK1/Cyclin B1 = CDK1/Cyclin B1 (Homo sapiens (Human), UniProt P06493); experiment: CDK1/Cyclin B1 ADP-Glo Kinase Assay; type: biochemical; conditions: 80 uM ATP
Protocol: CDK1/Cyclin B1 ADP-Glo Kinase Assay
(§2) The purpose of CDK1/Cyclin B1 assay is to evaluate the inhibition (% inhibition and IC50 values) of small molecule inhibitors by using a Luminescent based ADP-Glo assay. CDK1/Cyclin B1 catalyzes the production of ADP from ATP. ADP-Glo assay monitors ADP producing biochemical reactions. ADP-Glo is performed in 2 steps upon completion of kinase reaction: a combined termination of kinase reaction and depletion of remaining ATP in the first step, and conversion of generated ADP to ATP and the newly produced ATP to light output using luciferase/luciferin reaction in the second step. The luminescent signal generated is proportional to the ADP concentration produced and is correlated with the kinase activity. CDK1/Cyclin B1 was purchased from Carna (Cat 04-102). Typical reaction solutions (10 uL final reaction volume) contained 2% DMSO (f inhibitor), 10 mM MgCl2, 1 mM EGTA, 0.05% BSA, 2 mM DTT, 80 uM ATP (ATP Km=78.6 uM), 0.01% Brig-35, 0.75 uM substrate, and 4.917 nM CDK1/Cyclin Bl enzyme complex in 50 mM HEPES buffer at pH 7.5. The assay was initiated with the addition of ATP-containing substrate solution, following a 30-minute pre-incubation of enzyme and inhibitor at room temperature in the reaction mixture. The reaction was stopped after 90 minutes at room temperature by the addition of 10 uL of ADP-GLO Reagent. After a 90 minute incubation, 20 uL of Kinase Detection Reagent was added. Samples were incubated for 40 minutes, after which plate well luminescence was measured on a Envision microplate reader. The IC50 determinations were made from a plot of the fractional velocity as a function of inhibitor concentration fit to the 4 parameters IC50 equation.

CDK6/Cyclin D3 = CDK6/Cyclin D3 (Homo sapiens (Human), UniProt Q00534); experiment: CDK6/Cyclin D3 ADP-Glo Kinase Assay; type: biochemical; conditions: 100 uM ATP, read-out: CDK6/ CyclinD3 IC50
Protocol: CDK6/Cyclin D3 ADP-Glo Kinase Assay
as §2, with “of the CDK6/Cyclin D3” for “of CDK1/Cyclin B1”, “values) in the presence” for “values)”, “assay. CDK6/Cyclin D3” for “assay. CDK1/Cyclin B1”, “activity. CDK6/Cyclin D3” for “activity. CDK1/Cyclin B1”, “from Carna. […]” for “from Carna (Cat 04-102). Typical reaction solutions (10 uL final reaction volume) contained 2% DMSO (f inhibitor), 10 mM MgCl2, 1 mM EGTA, 0.05% BSA, 2 mM DTT, 80 uM ATP (ATP Km=78.6 uM), 0.01% Brig-35, 0.75 uM substrate, and 4.917 nM CDK1/Cyclin Bl enzyme complex in 50 mM HEPES buffer at pH 7.5.”, “a 90-minute” for “a 90 minute”

[1] = molecular target: CDK2/Cyclin E1 full length (Homo sapiens (Human), UniProt P24941); experiment: CDK2/Cyclin E1 Full Length ADP-Glo Kinase Assay; type: biochemical; conditions: 20 uM ATP, read-out: CDK2/ CyclinE1 IC50
Protocol: CDK2/Cyclin E1 Full Length ADP-Glo Kinase Assay
The purpose of CDK2/Cyclin E1 assay is to evaluate the inhibition (% inhibition and IC50 values) of small molecule inhibitors by using a Luminescent based ADP-Glo assay. CDK2/Cyclin E1 full length catalyzes the production of ADP from ATP. ADP-Glo assay monitors ADP producing biochemical reactions. ADP-Glo is performed in 2 steps upon completion of kinase reaction: a combined termination of kinase reaction and depletion of remaining ATP in the first step, and conversion of generated ADP to ATP and the newly produced ATP to light output using luciferase/luciferin reaction in the second step. The luminescent signal generated is proportional to the ADP concentration produced and is correlated with the kinase activity. CDK2/Cyclin E1 was purchased from Eurofins (Cat 14-475M). Typical reaction solutions (10 uL final reaction volume) contained 2% DMSO (f inhibitor), 10 mM MgCI2, 1 mM EGTA, 0.05% BSA, 2 mM DTT, 20 uM ATP (ATP Km=64.78 uM), 0.01% Brig-35, 0.75 uM substrate, and 0.328 nM wild-type full length CDK2/Cyclin E1 enzyme complex in 50 mM HEPES buffer at pH 7.5. The assay was initiated with the addition of ATP-containing substrate solution, following a 30-minute pre-incubation of enzyme and inhibitor at room temperature in the reaction mixture. The reaction was stopped after 90 minutes at room temperature by the addition of 10 uL of ADP-GLO Reagent. After a 90 minute incubation, 20 uL of Kinase Detection Reagent was added. Samples were incubated for 40 minutes, after which plate well luminescence was measured on a Envision microplate reader. The IC50 determinations were made from a plot of the fractional velocity as a function of inhibitor concentration fit to the 4 parameters IC50 equation.

Sequence of CDK4/Cyclin D1 (P11802 whole entry): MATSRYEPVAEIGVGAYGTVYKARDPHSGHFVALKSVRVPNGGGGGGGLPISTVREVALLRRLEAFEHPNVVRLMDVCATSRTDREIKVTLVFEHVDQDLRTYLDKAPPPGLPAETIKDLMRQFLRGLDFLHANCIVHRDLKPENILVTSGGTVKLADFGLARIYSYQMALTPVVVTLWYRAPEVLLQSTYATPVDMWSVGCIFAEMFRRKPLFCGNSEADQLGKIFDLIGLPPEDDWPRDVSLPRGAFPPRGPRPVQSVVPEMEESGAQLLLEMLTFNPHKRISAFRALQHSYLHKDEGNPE
Sequence of CDK4/Cyclin D1 (P24385 whole entry partner): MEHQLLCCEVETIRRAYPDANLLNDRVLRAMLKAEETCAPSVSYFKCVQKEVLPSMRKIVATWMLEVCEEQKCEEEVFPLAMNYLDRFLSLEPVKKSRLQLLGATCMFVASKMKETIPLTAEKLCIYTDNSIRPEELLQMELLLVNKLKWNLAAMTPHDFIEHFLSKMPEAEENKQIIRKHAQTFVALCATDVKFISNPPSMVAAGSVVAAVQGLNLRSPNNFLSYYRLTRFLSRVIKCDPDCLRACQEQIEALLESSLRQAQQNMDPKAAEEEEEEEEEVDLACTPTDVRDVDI
Sequence of CDK6/Cyclin D3 (Q00534 whole entry): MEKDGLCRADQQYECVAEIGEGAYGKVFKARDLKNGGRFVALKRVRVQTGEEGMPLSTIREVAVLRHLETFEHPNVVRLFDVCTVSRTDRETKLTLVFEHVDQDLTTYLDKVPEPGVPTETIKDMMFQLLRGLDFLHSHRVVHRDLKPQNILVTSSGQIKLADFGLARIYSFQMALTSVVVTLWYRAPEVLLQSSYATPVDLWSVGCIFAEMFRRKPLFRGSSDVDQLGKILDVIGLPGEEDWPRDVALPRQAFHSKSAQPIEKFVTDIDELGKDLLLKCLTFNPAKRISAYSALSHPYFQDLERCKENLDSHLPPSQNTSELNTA
Sequence of CDK6/Cyclin D3 (P30281 whole entry partner): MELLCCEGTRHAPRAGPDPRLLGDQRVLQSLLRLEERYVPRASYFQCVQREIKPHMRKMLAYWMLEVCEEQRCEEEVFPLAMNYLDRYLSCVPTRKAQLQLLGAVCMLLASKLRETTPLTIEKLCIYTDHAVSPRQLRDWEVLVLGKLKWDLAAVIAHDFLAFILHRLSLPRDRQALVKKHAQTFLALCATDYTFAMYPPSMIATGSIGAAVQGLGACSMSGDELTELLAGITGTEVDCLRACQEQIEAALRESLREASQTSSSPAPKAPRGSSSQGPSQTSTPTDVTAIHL
Sequence of CDK1/Cyclin B1 (P06493 whole entry): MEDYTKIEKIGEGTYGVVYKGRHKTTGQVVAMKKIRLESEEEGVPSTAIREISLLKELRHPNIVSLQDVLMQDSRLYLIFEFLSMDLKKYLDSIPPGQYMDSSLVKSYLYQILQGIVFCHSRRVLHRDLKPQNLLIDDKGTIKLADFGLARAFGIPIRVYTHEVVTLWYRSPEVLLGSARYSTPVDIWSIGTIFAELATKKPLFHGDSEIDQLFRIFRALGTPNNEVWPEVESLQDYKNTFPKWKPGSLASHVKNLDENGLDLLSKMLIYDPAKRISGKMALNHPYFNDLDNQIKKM
Sequence of CDK1/Cyclin B1 (P14635 whole entry partner): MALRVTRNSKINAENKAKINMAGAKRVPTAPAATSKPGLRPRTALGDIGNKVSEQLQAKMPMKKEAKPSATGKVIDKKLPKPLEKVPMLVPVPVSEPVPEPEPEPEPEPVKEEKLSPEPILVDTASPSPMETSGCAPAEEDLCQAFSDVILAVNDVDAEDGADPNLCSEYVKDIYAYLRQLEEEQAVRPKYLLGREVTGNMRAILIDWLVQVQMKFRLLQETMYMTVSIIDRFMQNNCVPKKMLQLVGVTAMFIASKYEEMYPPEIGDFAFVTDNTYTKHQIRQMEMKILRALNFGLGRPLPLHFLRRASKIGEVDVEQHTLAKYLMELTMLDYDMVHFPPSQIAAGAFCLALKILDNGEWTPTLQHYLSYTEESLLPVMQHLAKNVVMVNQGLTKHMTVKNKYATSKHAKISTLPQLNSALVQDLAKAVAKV

IC50 (CDK4/Cyclin D1) | IC50 (OVCAR-3 cells; Homo sapiens, 144 h) | IC50 (MCF-7 cells; Homo sapiens, MCF7, 144 h) | IC50 (CDK1/Cyclin B1) | IC50 (CDK6/Cyclin D3) | IC50 [1] | IC50 (OVCAR-3 cells) | IC50 (MCF-7 cells) | SMILES
< 200 nM | 500 to 2000 nM | 500 to 2000 nM | < 200 nM | 200 to 500 nM | < 200 nM |  |  | FC(F)c1cc(N2CC3(CCNC3)C2)c2nc(NC3CCN(c4ncc(C5CC5)cn4)CC3)ncc2c1 [Example 68, N-(1-(5-cyclopropylpyrimidin-2-yl)piperidin-4-yl)-6-(difluoromethyl)-8-(2,6-diazaspiro[3.4]octan-2-yl)quinazolin-2-amine]
< 200 nM | < 200 nM | 200 to 500 nM | < 200 nM | < 200 nM | < 200 nM |  |  | O=S(=O)(c1ccc(C(F)(F)F)nc1)N1CCC(Nc2ncc3cc(C(F)F)cc(N4CC5(CCNC5)C4)c3n2)CC1 [Example 97, 6-(difluoromethyl)-8-(2,6-diazaspiro[3.4]octan-2-yl)-N-(1-((6-(trifluoromethyl)pyridin-3-yl)sulfonyl)piperidin-4-yl)quinazolin-2-amine]
< 200 nM |  |  | < 200 nM | < 200 nM | < 200 nM | 500 to 2000 nM | 200 to 500 nM | CN1CC2(CCN(c3cc(C(F)F)cc4cnc(Nc5ccc6c(c5)CN(S(C)(=O)=O)C6)nc34)C2)C1 [Example 73, 6-(difluoromethyl)-8-(2-methyl-2,6-diazaspiro[3.4]octan-6-yl)-(methylsulfonyl)N-(2-isoindolin-5-yl)quinazolin-2amine]
< 200 nM | 200 to 500 nM | 200 to 500 nM | < 200 nM | < 200 nM | < 200 nM |  |  | O=S(=O)(C1CC1)N1CCC(Nc2ncc3cc(C(F)F)cc(N4CC5(CCNC5)C4)c3n2)CC1 [Example 74, N-(1-(cyclopropylsulfonyl)piperidin-4-yl)-6-(difluoromethyl)-8-(2,6-diazaspiro[3.4]octan-2-yl)quinazolin-2-amine]
< 200 nM | > 2000 nM | 500 to 2000 nM | > 2000 nM | > 2000 nM | 500 to 2000 nM |  |  | CN1CC2(CCN(c3cc(C(F)F)cc4cnc(NC5CCN(c6ncc(C7CC7)cn6)CC5)nc34)C2)C1 [Example 64, N-(1-(5-cyclopropylpyrimidin-2-yl)piperidin-4-yl)-6-(difluoromethyl)-8-(2-methyl-2,6-diazaspiro[3.4]octan-6-yl)quinazolin-2-amine]
< 200 nM | 200 to 500 nM | 500 to 2000 nM | < 200 nM | < 200 nM | < 200 nM |  |  | CS(=O)(=O)N1CCC(Nc2ncc3cccc(C4CC(O)(C(F)F)C4)c3n2)CC1 (stereo not drawn) [Example 120, 1-(difluoromethyl)-3-(2-((1-(methylsulfonyl)piperidin-4-yl)amino)quinazolin-8-yl)cyclobutan-1-ol]
< 200 nM | 500 to 2000 nM | 200 to 500 nM | < 200 nM | < 200 nM | < 200 nM |  |  | CC(C)(F)CN1CCC2(CC(c3cc(C(F)F)cc4cnc(NC5CCN(S(C)(=O)=O)CC5)nc34)C2)C1 (stereo not drawn) [Example 103, 6-(difluoromethyl)-8-(6-(2-fluoro-2-methylpropyl)-6-azaspiro[3.4]octan-2-yl)-N-(1-(methylsulfonyl)piperidin-4-yl)quinazolin-2-amine]
< 200 nM | 500 to 2000 nM | 500 to 2000 nM | > 2000 nM | 500 to 2000 nM | 200 to 500 nM |  |  | CN1CC2(CCN(c3cc(C(F)F)cc4cnc(NC5CCN(c6ncc7ccn(C8CC8)c7n6)CC5)nc34)C2)C1 [Example 71, N-(1-(7-cyclopropyl-7H-pyrrolo[2,3-d]pyrimidin-2-yl)piperidin-4-yl)-6-(difluoromethyl)-8-(2-methyl-2,6-diazaspiro[3.4]octan-6-yl)quinazolin-2-amine]
< 200 nM | 500 to 2000 nM | 200 to 500 nM | < 200 nM | < 200 nM | < 200 nM |  |  | O=S(=O)(C1CC1)N1CCC(Nc2ncc3cc(C(F)F)cc(N4CC5(CNCCO5)C4)c3n2)CC1 [Example 98, N-(1-(cyclopropylsulfonyl)piperidin-4-yl)-6-(difluoromethyl)-8-(5-oxa-2,8-diazaspiro[3.5]nonan-2-yl)quinazolin-2-amine]
